Values after ≈ are worked out from the molar mass of the structure shown. Where a name gives a salt, the structure may show the parent alone. Read-outs that look alike come from different tables or passages of the source.
How the values were obtained:
Assay type in all cases: cell-based
Candida albicans GDH2346 = test: Candida Minimal Inhibitory Concentration (MIC); settings: 50% growth inhibition at 48 hours; for MIC50: Candida albicans, GDH2346, read-out: MIC-50 Candida albicans GDH2346
Procedure: Candida Minimal Inhibitory Concentration (MIC): RPMI/MOPS media is prepared by dissolving 8.4 g RPMI 1640, 34.52 g MOPS buffer and 2 g glucose in 900 mL water. The pH is adjusted to 7.0 with NaOH. The total volume is brought to 1 L and the resulting solution is filter sterilized. The Candida stock is streaked on a Yeast extract Peptone Dextrose (YPD) agar plate and grown at 35° C. for isolation of single colonies. Compounds of the disclosure are diluted to 200 μg/mL in RPMI/MOPS (4.8 ul of 10 mg/mL DMSO stock in 240 ul media). Ten (10) 1:2 serial dilutions are prepared in RPMI/MOPS in a 96-well round bottom plate. Fifty (50) μl of compound dilutions are transferred in duplicate to a sterile tissue culture-treated 96-well flat-bottom, black-sided polypropylene plate. A single colony of Candida from the YPD plate is re-suspended in 5 mL phosphate buffered saline (BS) and optical density (OD) at 600 nm is measured. The suspension is adjusted to OD=1.0 and a 1:1000 dilution is prepared in RPMI/MOPS. Fifty (50) ul aliquots of the diluted yeast are added to the plates containing 50 μL of compound to all wells except 12E-H. Control wells include: 12 A-D cells, no compound and 12 E-H no cells, no compound. The plates are mixed gently by hand and placed in Ziplok bags in a 35° C. incubator. The OD600 is measured at 24 and 48 hours.

[1] = tested on: Mucor circinelloides 1463(62) (ATCC 26759); test: Fungal MIC Protocol, Mucor circinelloides (MIC-50); settings: Mucor circinelloides, read-out: MIC-50 Mucorales circinelloides 26579
Procedure: (§1) Fungal MIC Protocol: RPMI/MOPS media (Roswell Park Memorial Institute/3-morpholinopropane-1-sulfonic acid media) is prepared by dissolving 8.4 grams RPMI […] (Sigma cat #R1383), 34.52 grams MOPS buffer (Sigma cat #M3.183) and 2 […] glucose in 900 mL deionized water. The pH is adjusted to 7.0 with NaOH and filter sterilized. 0.1 mL, of a stock spore suspension (or loop from frozen stock) is inoculated to a 75 mL tissue culture flask (Falcon cat #353136) containing 50 mL of Potato Dextrose Agar (PDA, 24 grams PD broth (Fisher cat #DF 0549179), 20 grams agar (Fisher cat #BP 1423500) per liter water). Aspergillus and Fusarium strains are grown at 35° C. and Mucor strains are grown at room temperature for 3-5 days. Spores are harvested by flooding the flask with 5 mL phosphate buffered saline (PBS) pH 7.4+0.1% Tween-20 and several glass beads (Fisher cat #S800243) are added to aid in agitation. The supernatant is removed and the OD530 of a 1:100 dilution is measured. Spores are diluted in RPMI/MOPS to a final OD530 of 0.002 for Aspergillus and an OD530 of 0.005 for Fusarium and Mucor. The final concentration of spores is approximately 2×10^4 cfu/mL. Test compound(s) are diluted to 200 ug/mL in RPMI/MOPS ([…]). Ten (10) serial dilutions are prepared with RPMI/MOPS in a 96-well round bottom plate (Fisher cat #353136). For Mucor strains a sterile flat-bottom 96-well plate is used. 50 μl of compound dilutions in duplicate are added to a sterile 96-well round bottom plate. 50 ul of diluted spores are added to the compound-containing plates. Control wells include 1) compound but no cells and 2) spores but no compound. Mix the plates gently by hand, place in ziplock bags and
(§2) incubate at 35° C. for 48 hours. Score the MIC visually (lowest concentration of compound showing >50% growth inhibition) using an inverted mirror.

[2] = tested on: Aspergillus fumigatus T33439 (ATCC MYA-3626); test: Fungal MIC Protocol, Aspergillus fumigatus; settings: for MIC: Aspergillus fumigatus, read-out: MIC Aspergillus fumigatus 3626
Procedure: as §1
(§3) incubate at 35° C. for 48 hours. […]

[3] = tested on: Fusarium falciforme FS1 (ATCC MYA-3636); test: Fungal MIC Protocol, Fusarium falciforme; settings: Fusarium falciforme, read-out: MIC Fusarium falciforme 3636
Procedure: as §1, §3

[4] = tested on: Fusarium solani (ATCC 58877); test: Fungal MIC Protocol, Fusarium solani; settings: Fusarium solani, read-out: MIC Fusarium solani 58877
Procedure: as §1, §3

[5] = tested on: Mucor ramosissimus 057718 (ATCC 90286); test: Fungal MIC Protocol, Mucor ramosissimus (MIC-50); settings: Mucor ramosissimus, read-out: MIC-50 Mucorales ramosissimus 90286
Procedure: as §1, §2

[6] = tested on: Aspergillus flavus AFL1 (ATCC MYA-3631); test: Fungal MIC Protocol, Aspergillus flavus; settings: for MIC: Aspergillus flavus, read-out: MIC Aspergillus flavus 3631
Procedure: as §1, §3

[7] = ATCC26759, 50% growth inhibition at 48 hours
[8] = 100% growth inhibition at 48 hours
[9] = ATCC58877, 100% growth inhibition at 48 hours
[10] = ATCC90286, 50% growth inhibition at 48 hours

SMILES | MIC50 (Candida albicans GDH2346) [µg/mL] | MIC [2, 8] [µg/mL] | MIC [6, 8] [µg/mL] | also measured
CNc1cc(C2=CCN(C(=N)N)CC2)cc(F)c1-c1nnc(-c2ccc(C3=CCN(C(=N)N)CC3)cc2)n1C [Example 23, 4-(4-(5-(4-(1-Carbamimidoyl-1,2,3,6-tetrahydropyridin-4-yl)-2-fluoro-6-(methylamino)phenyl)-4-methyl-4H-1,2,4-triazol-3-yl)phenyl)-5,6-dihydropyridine-1(2H)-carboximidamide] | 0.39 (≈ 0.738 µM) | 0.39 (≈ 0.738 µM) | 0.78 (≈ 1.48 µM) | MIC50 [1, 7]: 0.39 µg/mL (≈ 0.738 µM); MIC [3, 8]: 0.39 µg/mL (≈ 0.738 µM); MIC [4, 9]: 0.2 µg/mL (≈ 0.378 µM); MIC50 [5, 10]: 1.56 µg/mL (≈ 2.95 µM)
N=C(N)N1CC=C(c2ccc(-c3nnc(-c4ccc(C5=CCN(C(=N)N)CC5)cc4C(F)(F)F)o3)cc2)CC1 [Example 46, 4-(4-(5-(4-(1-Carbamimidoyl-1,2,3,6-tetrahydropyridin-4-yl)-2-(trifluoromethyl)phenyl)-1,3,4-oxadiazol-2-yl)phenyl)-5,6-dihydropyridine-1(2H)-carboximidamide] | 0.2 (≈ 0.373 µM) | 1.56 (≈ 2.91 µM) | 1.56 (≈ 2.91 µM) | 
Cc1cc(C2=CCN(C(=N)N)CC2)cc(C)c1-c1nnc(-c2ccc(C3=CCN(C(=N)N)CC3)cc2)o1 [Example 45, 4-(4-(5-(4-(1-Carbamimidoyl-1,2,3,6-tetrahydropyridin-4-yl)-2,6-dimethylphenyl)-1,3,4-oxadiazol-2-yl)phenyl)-5,6-dihydropyridine-1(2H)-carboximidamide] | 0.39 (≈ 0.785 µM) | 0.39 (≈ 0.785 µM) | 0.39 (≈ 0.785 µM) | 
Cc1cc(C2CCN(C(=N)N)CC2)ccc1-c1nnc(-c2ccc(C3CCN(C(=N)N)CC3)cc2)o1 [Example 53, 4-(4-(5-(4-(1-Carbamimidoylpiperidin-4-yl)-2-methylphenyl)-1,3,4-oxadiazol-2-yl)phenyl)piperidine-1-carboximidamide] | 1.56 (≈ 3.21 µM) | 25 (≈ 51.4 µM) | 6.25 (≈ 12.8 µM) | 
Cn1nc(-c2ccc(N3CCN(C(=N)N)CC3)cc2)cc1-c1ccc(N2CCN(C(=N)N)CC2)cc1 [Example 55, 4,4′-(4,4′-(1-Methyl-1H-pyrazole-3,5-diyl)bis(4,1-phenylene)) dipiperazine-1-carboximidamide] | 1.56 (≈ 3.21 µM) | 0.78 (≈ 1.6 µM) | 3.13 (≈ 6.43 µM) | 
CNc1cc(C2=CCN(C(=N)N)CC2)ccc1-c1nnc(-c2ccc(C3=CCN(C(=N)N)CC3)cc2F)o1 [Example 47a, 4-(4-(5-(4-(1-Carbamimidoyl-1,2,3,6-tetrahydropyridin-4-yl)-2-(methylamino)phenyl)-1,3,4-oxadiazol-2-yl)-3-fluorophenyl)-5,6-dihydropyridine-1(2H)-carboximidamide] | 0.78 (≈ 1.51 µM) | 1.56 (≈ 3.03 µM) | 0.39 (≈ 0.756 µM) | 
Cc1c(C2=CCN(C(=N)N)CC2)ccc(-c2nnc(-c3ccc(C4=CCN(C(=N)N)CC4)cc3)o2)c1C [Example 44, 4-(4-(5-(4-(1-Carbamimidoyl-1,2,3,6-tetrahydropyridin-4-yl)-2,3-dimethylphenyl)-1,3,4-oxadiazol-2-yl)phenyl)-5,6-dihydropyridine-1(2H)-carboximidamide] | 0.39 (≈ 0.785 µM) | 6.25 (≈ 12.6 µM) | 1.56 (≈ 3.14 µM) | 
Cc1cc(N2CCN(C(=N)N)CC2)ccc1-c1nnc(-c2ccc(N3CCN(C(=N)N)CC3)cc2)o1 [Example 61, 4-(4-{5-[4-(4-Carbamimidoylpiperazin-1-yl)-2-methylphenyl]-1,3,4-oxadiazol-2-yl}phenyl)piperazine-1-carboximidamide] | 1.56 (≈ 3.19 µM) | 0.78 (≈ 1.6 µM) | 3.13 (≈ 6.41 µM) | 
N=C(N)N1CCC(c2ccc(-c3nnc(-c4ccc(C5CCN(C(=N)N)CC5)cc4)o3)cc2)CC1 [Example 52, 4,4′-(4,4′-(1,3,4-Oxadiazole-2,5-diyl)bis(4,1-phenylene)) dipiperidine-1-carboximidamide] | 4.3 (≈ 9.1 µM) | 50 (≈ 106 µM) | 6.25 (≈ 13.2 µM) | 
Cc1cc(-c2nnc(-c3ccc(N4CCN(C(=N)N)CC4)cc3)o2)ccc1N1CCN(C(=N)N)CC1 [Example 60, 4-(4-{5-[4-(4-Carbamimidoylpiperazin-1-yl)-3-methylphenyl]-1,3,4-oxadiazol-2-yl}phenyl)piperazine-1-carboximidamide] | 1.56 (≈ 3.19 µM) | 25 (≈ 51.2 µM) | 25 (≈ 51.2 µM) | 
CNc1cc(C2=CCN(C(=N)N)CC2)ccc1-c1nnc(-c2ccc(C3=CCN(C(=N)N)CC3)cc2NC)o1 [Example 47b, 4,4′-(4,4′-(1,3,4-Oxadiazole-2,5-diyl)bis(3-(methylamino)-4,1-phenylene))bis(5,6-dihydropyridine-1(2H)-carboximidamide)] |  |  |  | MIC-50 Candida albicans GDH2346 (Candida albicans GDH2346): 1.56 µg/mL (≈ 2.96 µM); MIC Aspergillus fumigatus 3626 [2, 8]: 0.78 µg·mL; MIC Aspergillus flavus 3631 [6, 8]: 0.78 µg·mL
N=C(N)N1CC=C(c2ccc(-c3nnc(-c4ccc(C5=CCN(C(=N)N)CC5)cc4F)n3C(CO)CO)c(F)c2)CC1 [Example 71, 4-(4-{5-[4-(1-carbamimidoyl-1,2,3,6-tetrahydropyridin-4-yl)-2-fluorophenyl]-4-(1,3-dihydroxypropan-2-yl}-4H-1,2,4-triazol-3-yl)-3-fluorophenyl)-1,2,3,6-tetrahydropyridine-1-carboximidamide hydrochloride] |  |  |  | MIC50 ([1]; ATCC26759, 48 h): 25 µg/mL; MIC ([2]; 48 h): 1.56 µg/mL; MIC ([3]; 48 h): 1.56 µg/mL; MIC ([4]; ATCC58877, 48 h): 0.39 µg/mL; MIC50 ([5]; ATCC90286, 48 h): 25 µg/mL; MIC ([6]; 48 h): 3.13 µg/mL
N=C(N)N1CCN(c2ccc(-c3nnc(-c4ccc(N5CCN(C(=N)N)CC5)cc4)o3)cc2)CC1 [Example 51, 4,4′-(4,4′-(1,3,4-Oxadiazole-2,5-diyl)bis(4,1-phenylene)) dipiperazine-1-carboximidamide] | 3.13 (≈ 6.6 µM) | 0.78 (≈ 1.64 µM) | 6.25 (≈ 13.2 µM) | 
N=C(N)N1CC=C(c2ccc(-c3nnc(-c4ccc(C5=CCN(C(=N)N)CC5)cc4F)n3Cc3ccccc3)c(F)c2)CC1 [Example 18] |  | 0.39 (≈ 0.657 µM) | 0.78 (≈ 1.31 µM) | MIC50 [1, 7]: 0.78 µg/mL (≈ 1.31 µM); MIC [3, 8]: < 0.1 µg/mL; MIC [4, 9]: 0.39 µg/mL (≈ 0.657 µM); MIC50 [5, 10]: 0.78 µg/mL (≈ 1.31 µM)
COc1cc(C2=CCN(C(=N)N)CC2)ccc1-c1nnc(-c2ccc(C3=CCN(C(=N)N)CC3)cc2OC)n1CCO [Example 75, 4-(4-{5-[4-(1-carbamimidoyl-1,2,3,6-tetrahydropyridin-4-yl)-2-methoxyphenyl]-4-(2-hydroxyethyl)-4H-1,2,4-triazol-3-yl}-3-methoxyphenyl)-1,2,3,6-tetrahydropyridine-1-carboximidamide trifluoroacetate] |  |  |  | MIC50 ([1]; ATCC26759, 48 h): 25 µg/mL; MIC ([2]; 48 h): 1.56 µg/mL; MIC ([3]; 48 h): 1.56 µg/mL; MIC ([4]; ATCC58877, 48 h): 0.39 µg/mL; MIC50 ([5]; ATCC90286, 48 h): 25 µg/mL; MIC ([6]; 48 h): 3.13 µg/mL
